PubChem BioAssay AID624167 (Sanford-Burnham Center for Chemical Genomics, 2012)
Activity calls are given as the source filed them.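 The calls were made as follows: active = mean IC50 for reducing PEG3 promoter reporter signal at or below a set limit, with IC50 above the limit in both counter screens; inactive = the rest, including counter screen hits.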

Tests used:
GAPDH = assay: inhibition of PEG-3 promoter-driven reporter – cell-based, HeLa, luciferase, CREF/GAPDH counter-screen panel, dose response (AID 624167); conditions: CREF/GAPDH counter-screens
PEG-3 [1] = molecular target: PEG-3 (UniProt Q6IN02); assay: as above; conditions: HeLa PEG-Prom luciferase reporter, overnight, CREF/GAPDH counter-screens, mean of runs
Sequence of PEG-3 (UniProt Q6IN02) (Q6IN02 whole entry, looked up): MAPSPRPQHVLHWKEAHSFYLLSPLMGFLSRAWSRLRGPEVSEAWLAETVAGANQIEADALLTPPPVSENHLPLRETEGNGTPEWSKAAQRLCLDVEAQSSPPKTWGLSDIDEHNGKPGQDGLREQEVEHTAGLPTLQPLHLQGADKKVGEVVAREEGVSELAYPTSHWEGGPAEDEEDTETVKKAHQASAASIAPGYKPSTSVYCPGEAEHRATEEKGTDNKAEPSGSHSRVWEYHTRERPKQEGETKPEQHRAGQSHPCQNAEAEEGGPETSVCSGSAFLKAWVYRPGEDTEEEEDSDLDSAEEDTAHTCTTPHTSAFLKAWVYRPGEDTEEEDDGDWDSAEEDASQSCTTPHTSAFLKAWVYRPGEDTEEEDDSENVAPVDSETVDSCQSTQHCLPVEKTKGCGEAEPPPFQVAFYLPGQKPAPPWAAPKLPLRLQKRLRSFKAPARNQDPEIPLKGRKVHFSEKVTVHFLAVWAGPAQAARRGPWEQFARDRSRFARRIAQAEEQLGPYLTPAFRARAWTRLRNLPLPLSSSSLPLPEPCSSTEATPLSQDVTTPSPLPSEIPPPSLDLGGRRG

[2] = as above; conditions: CREF/GAPDH counter-screens; GAPDH; mean of runs
PEG-3 [3] = assay: as above; conditions: HeLa PEG-Prom luciferase reporter, overnight, CREF/GAPDH counter-screens
Rat fibroblasts (CREF) = assay: as above; conditions: CREF/GAPDH counter-screens
[4] = run 1, dose range 1, individual replicate IC50 per panel
[5] = run 2, dose range 1, individual replicate IC50 per panel

SMILES | IC50 (GAPDH; [4]) | IC50 (GAPDH; [5]) | IC50 (PEG-3 [1]) | IC50 [2] | IC50 (PEG-3 [3]; [4]) | IC50 (PEG-3 [3]; [5]) | IC50 (Rat fibroblasts (CREF); mean of runs) | IC50 (Rat fibroblasts (CREF); [4]) | IC50 (Rat fibroblasts (CREF); [5])
Cc1oc(-c2ccc3c(c2)OCCO3)cc1C(=O)O | 4.06 µM | 6.29 µM | 3.93 µM | 5.18 µM | 3.12 µM | 4.73 µM | 34.2 µM | 31.2 µM | 37.3 µM
CC(=O)OC1(C)CC(C)C(=O)C(C(O)CC2CC(=O)NC(=O)C2)C1 (centres undefined) | < 0.2 µM | < 0.2 µM | 0.303 µM | < 0.2 µM | 0.221 µM | 0.385 µM | < 0.2 µM | < 0.2 µM | < 0.2 µM
C/C(=N\NC(=O)c1c(C)nc2ccccn12)c1ccc(O)cc1O | > 100 µM | > 100 µM | 0.922 µM | > 100 µM (inactive) | 1.31 µM | 0.534 µM | 62.8 µM (inactive) | > 100 µM | 25.5 µM
CC(/C=C/c1ccccc1)=N/NC(=O)c1cc([N+](=O)[O-])cc([N+](=O)[O-])c1 | > 100 µM | 9.02 µM | inactive | inactive | > 100 µM | 3.58 µM | 57.3 µM (inactive) | 14.5 µM | > 100 µM
CCCn1nc(C(=O)Nc2nc(-c3ccccn3)cs2)c2ccccc2c1=O | > 100 µM | 80.9 µM | 7.73 µM | inactive | 7.15 µM | 8.31 µM | > 100 µM (inactive) | > 100 µM | > 100 µM
O=C(N/N=C/c1c(O)ccc2ccccc12)c1ccc(CO)nc1 | > 100 µM | > 100 µM | 3.35 µM | > 100 µM (inactive) | 3.98 µM | 2.72 µM | 41.7 µM | 31 µM | 52.5 µM
O=C(N/N=C\c1c(O)ccc2ccccc12)c1cncc(Br)c1 | 40.3 µM | 69.7 µM | 0.512 µM | inactive | 0.52 µM | 0.504 µM | 9.73 µM | 2.43 µM | 17 µM
CN(C)S(=O)(=O)c1ccc(-c2csc(N/N=C/c3ccc(O)cc3)n2)cc1 | 11.7 µM | 12.5 µM | 8.22 µM | 12.1 µM | 8.68 µM | 7.77 µM | 9.81 µM | 9.26 µM | 10.4 µM
O=C(CCl)N1c2ccccc2Sc2ccc3ccccc3c21 | 26.7 µM | 23.4 µM | 8.68 µM | 25.1 µM | 12.2 µM | 5.18 µM | 26.3 µM | 24.5 µM | 28.1 µM
CCC(c1nnnn1-c1ccc2c(c1)OCCO2)N1CCC(n2c(=O)[nH]c3ccccc32)CC1 (centres undefined) | 9.08 µM | 12.6 µM | 7.33 µM | 10.8 µM | 4.46 µM | 10.2 µM | > 100 µM (inactive) | > 100 µM | > 100 µM
O=C(CNC(=O)C(c1ccccc1)c1ccccc1)N/N=C/c1ccc(O)cc1O | > 100 µM | > 100 µM | inactive | > 100 µM (inactive) | 3.59 µM | > 100 µM | > 100 µM (inactive) | > 100 µM | > 100 µM
COc1ccc(/C=C2\SC(=S)N(CCCC(=O)NNC(=O)c3ccccc3O)C2=O)cc1 | 21.9 µM | > 100 µM | 3.86 µM | inactive | 6.31 µM | 1.41 µM | 71.6 µM (inactive) | > 100 µM | 43.3 µM
CC(=O)OC1CC[C@]2(C#N)[C@H]3CC[C@]4(C)[C@H](C5C=CC(=O)O5)CCC4(O)C3CCC2(O)C1 (some centres undefined) | 3.88 µM | 16.4 µM | 10.4 µM | 10.1 µM | 9.87 µM | 11 µM | > 100 µM (inactive) | > 100 µM | > 100 µM
CCc1ccc(/C=C2\SC(=S)N(CCCC(=O)Nc3ccccn3)C2=O)cc1 | 15.6 µM | 40.1 µM | 4.03 µM | 27.8 µM | 5.21 µM | 2.85 µM | 50.2 µM (inactive) | > 100 µM | 0.313 µM
CC(=O)c1sc2c(c1OC(=O)c1ccc(Cl)cc1Cl)c(=O)n(-c1ccccc1)c(=S)n2-c1ccccc1 | 2.85 µM | 6.56 µM | 10.2 µM | 4.7 µM | 11.2 µM | 9.26 µM | > 100 µM (inactive) | > 100 µM | > 100 µM
CCCC(=O)NC(c1ccc(N(C)C)cc1)c1ccc2cccnc2c1O (centres undefined) | > 100 µM | > 100 µM | 1.75 µM | > 100 µM (inactive) | 2.74 µM | 0.758 µM | 72.3 µM (inactive) | > 100 µM | 44.7 µM
